# Experimental data: the supplement of paper PMC10307832
# Assays:
# Assay in all cases: relative viability (nuclei count vs DMSO), 5 days (fraction); higher = more cells survive
# Conditions in all cases: main component drawn
# [1] = compound: CC1=C(N=C(N=C1N)[C@H](CC(=O)N)NC[C@@H](C(=O)N)N)C(=O)N[C@@H]([C@H](C2=CN=CN2)OC3C(C(C(C(O3)CO)O)O)OC4C(C(C(C(O4)CO)O)OC(=O)N)O)C(=O)N[C@H](C)[C@H]([C@H](C)C(=O)N[C@@H]([C@@H](C)O)C(=O)NCCC5=NC(=CS5)C6=NC(=CS6)C(=O)NCCC[S+](C)C)O [Bleomycin] + Cc1cc(Nc2cc(N3CCN(C)CC3)nc(Sc3ccc(NC(=O)C4CC4)cc3)n2)n[nH]1 [Tozasertib] (partner 0.1 µM)
# How it was run: (§1)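 Five library-drug doses in √10 steps were combined with a fixed anchor-drug dose, or a single drug was given alone, by pin tool to lung cancer cell lines in 1536-well plates the day after seeding. Nuclei were stained and counted after 5 days. Relative viability is the nuclei count in treated wells over that in vehicle wells, taken as the median of duplicate plates.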
# [2] = compound: CC1=C(N=C(N=C1N)[C@H](CC(=O)N)NC[C@@H](C(=O)N)N)C(=O)N[C@@H]([C@H](C2=CN=CN2)OC3C(C(C(C(O3)CO)O)O)OC4C(C(C(C(O4)CO)O)OC(=O)N)O)C(=O)N[C@H](C)[C@H]([C@H](C)C(=O)N[C@@H]([C@@H](C)O)C(=O)NCCC5=NC(=CS5)C6=NC(=CS6)C(=O)NCCC[S+](C)C)O [Bleomycin] + CS(=O)(=O)N1CCN(Cc2cc3nc(-c4cccc5[nH]ncc45)nc(N4CCOCC4)c3s2)CC1 [Pictilisib] (partner 1 µM)
# How it was run: as §1
# [3] = compound: CC1=C(N=C(N=C1N)[C@H](CC(=O)N)NC[C@@H](C(=O)N)N)C(=O)N[C@@H]([C@H](C2=CN=CN2)OC3C(C(C(C(O3)CO)O)O)OC4C(C(C(C(O4)CO)O)OC(=O)N)O)C(=O)N[C@H](C)[C@H]([C@H](C)C(=O)N[C@@H]([C@@H](C)O)C(=O)NCCC5=NC(=CS5)C6=NC(=CS6)C(=O)NCCC[S+](C)C)O [Bleomycin] + C[C@]1(O)C[C@@H](c2nc(-c3ccc4ccc(-c5ccccc5)nc4c3)c3c(N)nccn32)C1 [Linsitinib] (partner 1 µM)
# How it was run: as §1
# [4] = compound: CC1=C(N=C(N=C1N)[C@H](CC(=O)N)NC[C@@H](C(=O)N)N)C(=O)N[C@@H]([C@H](C2=CN=CN2)OC3C(C(C(C(O3)CO)O)O)OC4C(C(C(C(O4)CO)O)OC(=O)N)O)C(=O)N[C@H](C)[C@H]([C@H](C)C(=O)N[C@@H]([C@@H](C)O)C(=O)NCCC5=NC(=CS5)C6=NC(=CS6)C(=O)NCCC[S+](C)C)O [Bleomycin] + COc1cccc2cc(-c3nc([C@H]4CC[C@H](C(=O)O)CC4)n4ncnc(N)c34)[nH]c12 [OSI-027] (partner 0.5 µM)
# How it was run: as §1
Cell Line,relative viability ([1]; first compound 0.01 µM),relative viability ([1]; first compound 0.03162 µM),relative viability ([1]; first compound 0.1 µM),relative viability ([1]; first compound 0.3162 µM),relative viability ([1]; first compound 1 µM),relative viability ([2]; first compound 0.01 µM),relative viability ([2]; first compound 0.03162 µM),relative viability ([2]; first compound 0.1 µM),relative viability ([2]; first compound 0.3162 µM),relative viability ([2]; first compound 1 µM),relative viability ([3]; first compound 0.01 µM),relative viability ([3]; first compound 0.03162 µM),relative viability ([3]; first compound 0.1 µM),relative viability ([3]; first compound 0.3162 µM),relative viability ([3]; first compound 1 µM),relative viability ([4]; first compound 0.01 µM),relative viability ([4]; first compound 0.03162 µM),relative viability ([4]; first compound 0.1 µM),relative viability ([4]; first compound 0.3162 µM),relative viability ([4]; first compound 1 µM)
LCLC-97TM1,0.176,0.217,0.218,0.158,0.195,0.141,0.119,0.141,0.0993,0.0953,0.138,0.165,0.141,0.109,0.0963,0.444,0.403,0.177,0.196,0.108
LCLC-103H,0.427,0.479,0.476,0.279,0.234,0.638,0.573,0.54,0.34,0.255,1.03,1.06,1.06,1.13,0.564,0.39,0.451,0.468,0.34,0.219
LK-2,0.178,0.159,0.179,0.179,0.177,0.517,0.489,0.437,0.287,0.278,0.418,0.373,0.318,0.198,0.255,0.192,0.202,0.177,0.167,0.162
LOU-NH91,0.504,0.289,0.404,0.323,0.274,0.53,0.493,0.432,0.392,0.325,0.78,0.611,0.522,0.37,0.317,0.667,0.564,0.555,0.503,0.306
LU99A,0.27,0.25,0.216,0.193,0.147,0.249,0.233,0.191,0.152,0.137,0.379,0.348,0.252,0.166,0.127,0.253,0.289,0.259,0.234,0.161
LXF-289,0.179,0.193,0.181,0.0822,0.0688,0.713,0.799,0.685,0.358,0.15,0.899,0.91,0.839,0.389,0.186,0.647,0.781,0.693,0.315,0.169
NCI-H23,0.208,0.268,0.217,0.161,0.135,0.262,0.348,0.263,0.169,0.153,0.292,0.253,0.225,0.152,0.137,0.361,0.401,0.272,0.141,0.145
NCI-H322M,0.424,0.496,0.473,0.396,0.38,0.49,0.493,0.491,0.4,0.421,0.961,1.01,0.95,1.1,0.684,0.399,0.535,0.513,0.464,0.421
NCI-H358,0.103,0.101,0.0984,0.106,0.11,0.349,0.355,0.34,0.233,0.228,0.674,0.738,0.666,0.455,0.39,0.73,0.67,0.662,0.335,0.185
NCI-H441,0.53,0.611,0.471,0.332,0.275,–,0.439,0.482,0.316,0.267,–,0.57,0.564,0.209,0.255,0.404,0.735,0.534,0.383,0.283
NCI-H460,0.0837,0.101,0.153,0.0462,0.0258,0.307,0.285,0.244,0.0358,0.1,0.448,0.356,0.158,0.0344,0.0252,0.373,0.334,0.165,0.038,0.0308
NCI-H520,0.412,0.422,0.486,0.33,0.358,0.298,0.301,0.287,0.256,0.238,0.949,0.987,0.973,0.687,0.566,0.272,0.299,0.21,0.208,0.198
NCI-H596,0.639,0.583,0.468,0.354,0.253,0.379,0.419,0.329,0.268,0.261,0.79,0.73,0.554,0.442,0.43,0.48,0.561,0.512,0.304,0.278
NCI-H647,0.0723,0.103,0.0701,0.0484,0.0467,0.251,0.254,0.191,0.105,0.0791,0.649,0.487,0.321,0.13,0.102,0.195,0.184,0.184,0.0871,0.0587
